One test addresses PARP2 (Homo sapiens (Human), UniProt Q9UGN5). As to the kind of experiment: PARP2 protein expression level in MDA-MB-231 cells. It is filed as cell-based. The procedure: MDA-MB-231 cells were placed in a complete DMEM medium (supplemented with 10% FBS and 1% penicillin-streptomycin solution) and cultured at 37° C. and 5% CO2. The cells in the logarithmic growth phase were collected, the cell density was adjusted to 5×10^5 cells/well with the culture medium, and the cells were added to a 6-well cell culture plate at a volume of 1 mL/well, and cultured overnight in a 37° C., 5% CO2 incubator. On day 2, the compound to be tested was prepared to 2-fold the final concentration, 1 mL of the compounds at different concentrations were added to administration wells and a medium containing 0.2% DMSO was added to control wells, and the plate was incubated for 24 hours at 37° C. and 5% CO2. […] The supernatant was collected and the protein content was determined using the BCA method. The protein sample to be tested was diluted to 2 mg/mL, PARP2 was detected using a fully automated protein expression quantitative analyzer (ProteinSimple), and the internal reference protein was 3-actin (both antibodies were from CST). The software (Compass for SW) of the fully automated protein expression quantitative analyzer was used to process the raw data and calculate the peak area and the PARP2 expression rate relative to the control group. DC50 values were calculated using a four-parameter non-linear fitting model in Graphpad 8.3.0 software.

The target of another test is PARP1 (Homo sapiens (Human), UniProt P09874). As to the kind of experiment: PARP1 enzyme activity inhibition (chemiluminescence kit). Format: biochemical. The procedure: PARP1, PARP2 and PARP7 chemical […] detection kits were all purchased from BPS Bioscience. The histone solution in the kit was diluted 5× with 1×PBS, and 25 μL of the diluted histone solution was added to a microwell plate and incubated overnight at 4° C. After the incubation was completed, the plate was washed three times with PBST (0.05% Tween-20). 25 μL of a blocking solution was added to the microwell plate and incubated at 25° C. for 90 minutes. After the incubation was completed, the plate was washed three times with PBST. 2.5 μL of compounds at different concentrations diluted in test buffer and 5 μL of 2.5× substrate mixed solution were added to the microwell plate. PARP1, PARP2 and PARP7 enzymes were diluted to 0.33, 0.23 and 5.00 ng/μL, respectively, 5 μL of the diluent was added to the microwell plate, and the reaction system was incubated at 25° C. for 60 minutes. After the incubation was completed, the plate was washed three times with PBST. […] ELISA ECL substrate A and substrate B were mixed at a ratio of 1:1 (v/v), 25 μL of the mixture was added to the microwell plate, and the chemiluminescence value was read using a BMG microplate reader.
Chain of PARP1 (P09874 whole entry): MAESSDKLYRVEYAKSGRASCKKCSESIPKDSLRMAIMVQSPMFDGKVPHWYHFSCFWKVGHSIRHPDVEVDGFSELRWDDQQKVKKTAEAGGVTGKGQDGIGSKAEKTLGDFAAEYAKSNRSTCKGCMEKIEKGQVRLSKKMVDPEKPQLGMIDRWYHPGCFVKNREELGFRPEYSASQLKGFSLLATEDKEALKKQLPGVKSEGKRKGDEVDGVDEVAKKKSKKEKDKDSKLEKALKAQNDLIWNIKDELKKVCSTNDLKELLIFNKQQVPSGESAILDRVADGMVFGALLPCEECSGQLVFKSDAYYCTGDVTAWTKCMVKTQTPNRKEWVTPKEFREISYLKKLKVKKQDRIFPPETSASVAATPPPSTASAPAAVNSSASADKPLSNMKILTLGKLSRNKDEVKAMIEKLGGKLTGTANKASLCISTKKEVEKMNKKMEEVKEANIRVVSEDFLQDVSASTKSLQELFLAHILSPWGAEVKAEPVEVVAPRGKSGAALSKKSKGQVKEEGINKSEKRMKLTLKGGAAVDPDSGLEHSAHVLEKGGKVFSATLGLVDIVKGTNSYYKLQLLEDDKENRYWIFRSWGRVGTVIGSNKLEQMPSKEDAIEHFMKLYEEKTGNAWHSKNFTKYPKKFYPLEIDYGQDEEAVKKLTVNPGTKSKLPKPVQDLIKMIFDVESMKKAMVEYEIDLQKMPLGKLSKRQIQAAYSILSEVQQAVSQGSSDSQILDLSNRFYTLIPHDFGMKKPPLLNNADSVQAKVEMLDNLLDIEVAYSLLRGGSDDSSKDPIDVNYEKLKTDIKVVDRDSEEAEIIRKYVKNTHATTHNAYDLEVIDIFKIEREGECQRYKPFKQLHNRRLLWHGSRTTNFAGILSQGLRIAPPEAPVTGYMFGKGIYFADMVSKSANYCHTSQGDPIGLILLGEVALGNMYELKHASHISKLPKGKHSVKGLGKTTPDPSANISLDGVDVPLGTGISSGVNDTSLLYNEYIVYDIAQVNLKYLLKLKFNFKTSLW
Curve fitting was performed by four parameters (log(inhibitor) vs. response−Variable slope) using GraphPad Prism software, and the IC50 value was calculated.

Test [1] has as its system breast tumor cells MDA-MB-436. As to the kind of experiment: MDA-MB-436 cell activity test (CellTiter-Glo, 7 days). As to conditions: Homo sapiens. It is filed as cell-based, human. The gist of the method:
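MDA-MB-436 cells in Leibovitz's L-15 + 10% FBS, 37° C. without CO2, seeded 4000 cells/well overnight, then treated with compound dilutions for 7 days. Viability by CellTiter-Glo luminescence; inhibition relative to solvent control and cell-free blank, IC50 from concentration-response.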

The structures appear in SMILES notation.

Chain of PARP2 (Q9UGN5 whole entry): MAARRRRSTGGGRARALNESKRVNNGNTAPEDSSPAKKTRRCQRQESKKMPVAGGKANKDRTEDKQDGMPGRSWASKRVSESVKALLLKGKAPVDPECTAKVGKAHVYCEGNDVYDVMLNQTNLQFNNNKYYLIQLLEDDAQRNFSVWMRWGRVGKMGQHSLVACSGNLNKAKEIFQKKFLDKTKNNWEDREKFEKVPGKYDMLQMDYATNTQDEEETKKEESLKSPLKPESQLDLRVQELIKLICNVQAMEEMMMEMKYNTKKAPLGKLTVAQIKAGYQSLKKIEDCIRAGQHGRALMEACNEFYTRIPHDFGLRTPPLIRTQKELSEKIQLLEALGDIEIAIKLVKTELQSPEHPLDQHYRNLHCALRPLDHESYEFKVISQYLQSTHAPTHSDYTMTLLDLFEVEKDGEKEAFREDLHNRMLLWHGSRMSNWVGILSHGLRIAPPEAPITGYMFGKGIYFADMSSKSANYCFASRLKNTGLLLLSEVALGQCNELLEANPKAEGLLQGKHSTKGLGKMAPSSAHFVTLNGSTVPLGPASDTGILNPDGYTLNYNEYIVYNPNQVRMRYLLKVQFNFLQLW

For `CCc1cc2ncc(CN3CCN(c4ccc(C(=O)NC5CCN(c6ccc7c(c6)C(=O)N(C6CCC(=O)NC6=O)C7=O)CC5)nc4)CC3)cc2[nH]c1=O` (stereo not drawn) [Compound 10, N-(1-(2-(2,6-dioxopiperidin-3-yl)-1,3-dioxoisoindolin-5-yl)piperidin-4-yl)-5-(4-((7-ethyl-6-oxo-5,6-dihydro-1,5-naphthyridin-3-yl)methyl)piperazin-1-yl)picolinamide], at PARP2, the “PARP1 degradation selectivity over PARP2” value is “good PARP1 degradation selectivity”. Also, on PARP2 (24 hours), the DC50 was greater than 5 nM. For the same compound, the IC50 against PARP1 (PARP1 enzyme) came to 0.32 nM; in test [1] (MDA-MB-436, 168 h, MDA-MB-436 cells, 7 days incubation, read-out: IC50 (nM), MDA-MB-436 cell inhibitory activity), 36 nM. In addition, at PARP1 (enzyme activities in vitro), the “PARP1 inhibitory selectivity over PARP2 and PARP7” value is “good PARP1 inhibitory selectivity”. Moreover, the inhibition at 10 µM in test [1] (MDA-MB-436, MDA-MB-436 cells, 10 μM, read-out: Max inh. % 10 μM) was 99.8%.

Values taken from patent US20250222116A1, “PARP-1 DEGRADATION AGENT AND USE THEREOF” (XIZANG HAISCO PHARMACEUTICAL CO., LTD., priority 2021, published 2025).
